Assay results: US12577270B2, “2′,3′-diacetyluridine substituted with acetoacetyl at the 5′ position” (PHARMA CINQ, LLC, priority 2020, dated 2026)
Read-outs that look alike come from different tables or passages of the source.

Key:
[1] = test system: mice receiving 60 mg/kg/day 3-nitropropionic acid (progressive lethal mitochondrial energy failure); experiment: Protection against mortality caused by 3-nitropropionic acid (Example 6, 11 day study); assay type: in vivo, Female CD-1 mice; conditions: for Median Survival / % Survival: 3-NP 60 mg/kg/day ip, UTA 1000 mg/kg b.i.d. or AcAcDAU 1113.5 mg/kg b.i.d. oral; for survival time versus vehicle alone: UTA 1000 mg/kg or AcAcDAU 1113.5 mg/kg b.i.d.; for % Survival: end of 11 day study
Description: 5′-O-acetoacetyl-2′,3′-di-O-acetyluridine (AcAcDAU) delivers both uridine and acetoacetate (and beta-hydroxybutyrate [BHB] derived from acetoacetate) into the circulation after oral administration. A study was designed to compare relative efficacy of UTA versus AcAcDAU in a model of progressive lethal mitochondrial energy failure. Mitochondrial dysfunction was produced by daily administration of 3-nitropropionic acid (3-NP; 60 mg/kg/day) by intraperitoneal injection. 3-NP is an irreversible inhibitor of succinate dehydrogenase (Complex II of the mitochondrial electron transport chain). Daily dosing with 3-NP results in progressive diminution of mitochondrial capacity to maintain ATP production, eventually resulting in mortality from both neurodegeneration and cardiomyopathy.
Female CD-1 mice at approximately 16 weeks of age were divided into weight-matched groups of 10 mice each. All mice received daily intraperitoneal injections of 3-NP (60 mg/kg) in a volume of 0.01 ml per gram of body weight.
In addition to daily injections of 3-NP, the three groups of mice received 1) Vehicle; 2) UTA; or 3) AcAcDAU. This experiment used the AcAcDAU from Example 2. These treatments were administered orally, by gavage, in a volume of 0.02 ml per gram of body weight.
• 1. Vehicle Control (0.75% HPMC; hydroxypropylmethylcellulose) • 2. Uridine triacetate 1000 mg/kg BID (suspended in 0.75% HPMC) • 3. AcAcDAU 1113.5 mg/kg (molar equivalent to 1000 mg/kg UTA) BID (dissolved in 0.75% HPMC)
(§1) Body weights were recorded each day to adjust drug doses as mice lost weight during repeated treatment with 3-NP.
Survival times (median survival; the time point at which 50% of animals in a group had died) and percent survival at the end of the 11 day study were used to quantify and compare protective effects of the test agents.

[2] = Plasma uridine, uracil and beta-hydroxybutyrate in mice after oral administration of AcAcDAU (Example 5); assay type: in vivo, Female CD-1 mice; conditions: 2350 mg/Kg oral, 15-120 min, result in words
Source text: An important feature of 5′-O-(acetoacetyl)-2′,3′-di-O-acetyluridine (AcAcDAU) is that it yields simultaneous or concurrent delivery of both uridine and acetoacetate via a single drug molecule. Acetoacetate in plasma is in equilibrium with beta-hydroxybutyrate (BHB) mirroring free NADH/NAD+ ratios in hepatic mitochondria, and heavily favoring BHB as the more prevalent of the two ketone bodies under normal physiological conditions. Moreover, BHB is stable after blood sampling and processing, whereas acetoacetate is labile. Therefore, plasma BHB was measured along with plasma uridine in mice receiving oral AcAcDAU.
Chemical(s): HPMC (Hydroxypropyl) methyl cellulose (SIGMA-Aldrich: cat #H3785, CAS 9004-65-3), 5′-O-(acetoacetyl)-2′,3′-di-O-acetyluridine (AcAcDAU; lot #432168B). This experiment used the AcAcDAU from Example 2.
(§2) Vehicle: Aqueous HPMC was used as a vehicle for oral administration of the uridine derivatives.
(§3) Dosing Formulation: UTA and other uridine derivatives were prepared in 0.75% HPMC. AcAcDAU was added to 0.75% HPMC and homogenized to eliminate clumps. The suspensions were made up to the desired volume and concentration and sonicated to disaggregate any small leftover clumps into fine particles. Suspensions were stored at 4° C. until use. Suspensions were used within 24 hrs of preparation.
Dosing: Mice received a dose of 2350 mg/Kg AcAcDAU gavaged at 0.02 ml/g body weight. Control mice received only the 0.75% HPMC vehicle
General Experimental Design: The general layout for the experiment involved gavaging mice with AcAcDAU and obtaining blood samples at several time points thereafter (see table below for details). The experiment included a group with 2 mice gavaged with HPMC only and bled at 60 and 120 min for determination of baseline plasma uridine.
Mice received 0.02 ml/g bodyweight of a suspension (0.75% hydroxypropylmethylcellulose in water) with a concentration of AcAcDAU of 117 mg/ml for a dose of 2,350 mg/Kg body weight. […]

[3] = test system: mice receiving 60 mg/kg/day 3-nitropropionic acid (progressive mitochondrial failure); experiment: Protection against mortality due to 3-nitropropionic acid, higher doses (Example 7, 10 day study); assay type: in vivo; conditions: for survival time versus vehicle alone: UTA 2000 mg/kg or AcAcDAU 2227 mg/kg b.i.d.; for % Survival: end of 10 day study, 3-NP 60 mg/kg/day ip, UTA 2000 mg/kg b.i.d. or AcAcDAU 2227 mg/kg b.i.d. oral
Description: In this example the effect of higher doses of UTA (2000 mg/kg/dose) versus equimolar AcAcDAU (2227 mg/kg/dose) were compared in the same model system.
• 1. Vehicle Control (0.75% HPMC; hydroxypropylmethylcellulose) • 2. Uridine triacetate 2000 mg/kg BID (suspended in 0.75% HPMC)
AcAcDAU 2227 mg/kg (molar equivalent to 2000 mg/kg UTA) BID (dissolved in 0.75% HPMC). This experiment used the AcAcDAU from Example 2. The treatment schedule was as follows:
as §1
Percent survival of mice in each group of 10 mice at the end of the 10 day study were used to quantify and compare protective effects of the test agents.

[4] = Plasma uridine and [uridine+uracil] in mice after oral administration of uridine prodrugs (Example 4); assay type: in vivo, Female CD-1 mice; conditions: for systemic uridine delivery after oral administration: oral gavage, dose equimolar to 600 mg/Kg UTA, result in words
Source text: Chemical(s): HPMC (Hydroxypropyl)methyl cellulose (SIGMA-Aldrich: cat #H3785, CAS 9004-65-3); uridine triacetate (2′,3′,5′-tri-O-acetyluridine): UTA, Item Code D000156, Lot #Q000001095, made by Almac Sciences; 2′,3′,5′-tri-O-(acetoacetyl)uridine: Tri-AcAcU; 5′-O-(acetoacetyl)-2′,3′-di-O-acetyluridine: AcAcDAU; 2′,3′-di-O-acetyl-5′-O-heptanoyluridine: DA-HU. (Note: the AcAcDAU used in this experiment was the mixture of 9.4 parts 5′-O-(acetoacetyl)-2′,3′-di-O-acetyluridine and 1 part a combination of 5′-O-(acetoacetyl)-2′-O-acetyl-3′-O-formyluridine and 5′-O-(acetoacetyl)-3′-O-acetyl-2′-O-formyluridine from Example 1 above.)
as §2
as §3, with “UTA and other uridine derivatives were” for “AcAcDAU was”, “suspension” for “suspensions”
Dosing: Mice received a dose of 600 mg/Kg UTA gavaged at 0.02 ml/g body weight. Other uridine derivatives were dosed in the same manner at concentrations containing amounts of uridine equimolar to UTA.
Animals: Female CD-1 mice.
The general initial layout for the experiment involved gavaging groups of 6 mice with uridine derivatives and obtaining blood samples at several times points thereafter (3 mice were bled for 2 time points (15 and 60 minutes), and another 3 mice were bled for the other 2 time points (30 and 120 minutes). Each experiment included an HPMC (vehicle only) time point with 3 mice to establish a baseline for blood uridine.
Blood samples were collected into plasma separation tubes, which were centrifuged immediately after blood collection, and aliquots of plasma were frozen for subsequent processing. Plasma was later deproteinated, and uridine and uracil were quantified by liquid chromatography using UV absorbance detection and mass spectrometry.
Delivery of uridine into the bloodstream was assessed by monitoring plasma uridine and the sum of uridine and uracil [uridine+uracil], as uracil is the first product in enzymatic degradation of uridine. Mice convert administered uridine to uracil more rapidly and extensively than do humans.

[5] = humans; cited from earlier work
[6] = mice; cited from earlier work

| systemic uridine delivery after oral administration [4] | SMILES | Median Survival [1] [days] | survival time versus vehicle alone ([1]; result in words) | % Survival [1] | survival time versus vehicle alone ([3]; result in words) | % Survival [3] | further results |
| --- | --- | --- | --- | --- | --- | --- | --- |
| – | CC(=O)CC(=O)OC[C@H]1O[C@@H](n2ccc(=O)[nH]c2=O)[C@H](OC(C)=O)[C@@H]1OC(C)=O [AcAcDAU, 5′-O-(acetoacetyl)-2′,3′-di-O-acetyluridine] | >11 | improved survival time | 50% (2/10) | improved survival time | 100% (10/10) | median survival time compared with UTA ([1]; AcAcDAU 1113.5 mg/kg b.i.d. vs equimolar UTA, result in words): longer; Plasma beta-hydroxybutyrate after oral administration [2]: elevated; Plasma uracil after oral administration [2]: elevated; Plasma uridine after oral administration [2]: elevated; survival at the 10 day time point compared with equimolar UTA ([3]; AcAcDAU 2227 mg/kg b.i.d. vs UTA 2000 mg/kg b.i.d., result in words): better survival; delivery of uridine and uridine catabolites ([uridine+uracil]) into the circulation compared with equimolar uridine triacetate ([4]; oral, equimolar to 600 mg/Kg UTA, AcAcDAU was the 9.4:1 mixture from Example 1, result in words): more |
| delivered little uridine | CC(=O)CC(=O)OC[C@H]1O[C@@H](n2ccc(=O)[nH]c2=O)[C@H](O)[C@@H]1O [AcAcU, 5′-O-(acetoacetyl)uridine] | – | – | – | – | – | – |
| relatively poor | CCCCCCC(=O)OC[C@H]1O[C@@H](n2ccc(=O)[nH]c2=O)[C@H](OC(C)=O)[C@@H]1OC(C)=O [DA-HU, 2′,3′-di-O-acetyl-5′-O-heptanoyluridine, reference compound] | – | – | – | – | – | – |
| relatively poor | CC(=O)CC(=O)OC[C@H]1O[C@@H](n2ccc(=O)[nH]c2=O)[C@H](OC(=O)CC(C)=O)[C@@H]1OC(=O)CC(C)=O [Tri-AcAcU, 2′,3′,5′-tri-O-(acetoacetyl)uridine, reference compound] | – | – | – | – | – | – |
| – | CC(=O)OC[C@H]1O[C@@H](n2ccc(=O)[nH]c2=O)[C@H](OC(C)=O)[C@@H]1OC(C)=O [UTA, 2′,3′,5′-tri-O-acetyluridine, reference compound] | 7 | improved survival time | 30% (5/10) | improved survival time | 70% (7/10) | – |
| – | O=c1ccn([C@@H]2O[C@H](CO)[C@@H](O)[C@H]2O)c(=O)[nH]1 [uridine] | – | – | – | – | – | bioavailability (oral delivery) [5]: approximately 7%; bioavailability (oral delivery) [6]: approximately 7% |
